# Measured values reported in patent US8889156B2, “Calcium-binding agents induce hair growth and/or nail growth” (priority 2009, dated 2014).
# “Also recorded” adds a separate entry of the source.
# Assays:
# [1] = DSS-mediated remineralization of demineralized tooth surfaces with Quell Desensitizer (SEM); parameters: species or system human; details: peptide pretreatment 1 h, then Quell Desensitizer 15 min
# Experimental: Adult human molars, extracted during normal clinical practice, were sagittally sectioned (Accutom-50, Copenhagen, Denmark; CA-231 diamond blade) and demineralized with 19% ethylenediaminotetraacetic acid (EDTA) gel for 1 h, followed by immersion in deionized water and ultrasonication to remove debris. Samples were treated with either 12.5 p.M 8DSS (SEQ ID NO:33) peptide in 50 mM HEPES buffer (pH 7.0) or buffer alone (no peptide) or were left untreated for 1 h prior to remineralization with Quell Desensitizer (Pentron Technologies, Wallingford, Conn.), a remineralization solution consisting of aqueous solutions of calcium chloride and potassium phosphate, for 15 min. Samples were rinsed thoroughly prior to imaging by scanning electron microscopy. Having established that (DSS)n-containing peptides can bind to the dentin surface and that immobilized peptides could cause the accretion of calcium phosphate, we sought to determine whether these peptides could be used to recruit calcium phosphate to the dentin surface. Demineralized sections of extracted human teeth were treated with 8DSS (SEQ ID NO:33) peptide and then subjected to remineralization with Quell Desensitizer (Pentron Technologies), a commercially available remineralization product consisting of aqueous solutions of calcium chloride and potassium phosphate.
# [2] = Nucleation of hydroxyapatite on tooth enamel (SBFn/SBFg, SEM); parameters: species or system human; details: demineralized enamel, 12.5 μM peptide
# Experimental: To determine whether applying DSS to various preparations of tissue promoted HA nucleation, that could ultimately lead to tissue remineralization, sagittally sectioned adult human teeth (obtained after extraction during normal clinical practice) were polished using a Streurs grinding wheel, and prepared for nucleation experiments. Half of the sections were demineralized with 35% phosphoric acid for 15 minutes, then rinsed thoroughly with deionized water. The other half were left untreated. All samples were then sonicated for five minutes to remove excess debris left from cutting and grinding and/or demineralization. Samples were treated with 12.5 μM 8DSS dissolved in 50 mM HEPES buffer solution (pH 7.0), buffer solution only, or left untreated. Samples were then immersed into a simulated body fluid (SBFn), meant to accelerate nucleation of hydroxyapatite (HA) crystals, for 4 hours. Following the nucleation step, samples were immersed in a magnesium and bicarbonate free solution (SBFg) in order to allow the nucleated HA crystals to grow. […] Both solutions were adjusted to pH 6.8. Crystals were grown in order to amplify the nucleated crystals for easy visualization by SEM.
# [3] = Binding of labeled peptide to sagittally sectioned adult human molars (CLSM, Example 6); details: fluorescein-labeled peptide, 10 min
# Experimental: For binding experiments, sagittally sectioned adult human molars were incubated for 10 min in a solution of 12.5 p.M 5(6)-carboxyfluorescein-labeled 6DSS (SEQ ID NO:32) peptide containing 10 mM NaCl and 50 mM HEPES, pH 7.0. Control samples were prepared without peptide. Samples were rinsed after treatment and imaged by confocal laser scanning microscopy (CLSM) with illumination by a blue Kr/Ar laser (λ=488 nm) and a FITC emission filter. To test binding of DSS-containing peptides to biological tissue, sagittally sectioned human teeth were incubated treated with 6DSS (SEQ ID NO:32) (control samples were prepared without peptide), washed, and imaged by CLSM.
# [4] = Tissue specific binding of labeled peptides to sections of human teeth (CLSM); details: 5(6)-carboxyfluorescein-labeled peptide, ten minutes
# From the text: In order to investigate the tissue specificity of DSS peptide binding to tooth tissue, sections of human teeth were exposed to DSS peptides and variants, then imaged by CLSM. The peptides utilized for these experiments were 8DSS (SEQ ID NO:33), 8ASS (SEQ ID NO:26), 8DAA (SEQ ID NO:40), 8NAA (SEQ ID NO:41), 4DSS (SEQ ID NO:31), 4ESS (SEQ ID NO:34), 4NSS (SEQ ID NO:35), 4DTT (SEQ ID NO:36), 4ETT (SEQ ID NO:37), 4NTT (SEQ ID NO:38), and 6DSS (SEQ ID NO:32). Sagittal sections of human teeth extracted during normal clinical practice were polished and then incubated for ten minutes in a solution of the appropriate 5(6) carboxyfluorescein-labeled peptide (12.5pM) containing 10 mM NaCl and 50 mM HEPES, pH 7.0. Control samples were prepared without peptide. Samples were washed extensively after treatment and imaged by CLSM using blue laser illumination (A=488 nm) and a FITC emission filter, with identical camera and microscope settings for each sample. For each section, multiple scans were collected and assembled in an automated mode to generate panels of images representing an area of 13×13 mm, sufficient in most cases to encompass the whole section. […] Significant binding was also seen to the edges of the pulp cavity.
# [5] = Binding of labeled peptides to carious lesions in teeth (CLSM); parameters: species or system human; details: labeled peptide, settings optimized per sample
# From the text: Sections of human teeth containing obvious carious lesions, which consist of demineralized enamel, were polished and exposed to 5(6)-carboxyfluorescein-labeled DSS peptides and variants. The sections were washed extensively and imaged by CLSM using blue laser illumination (A=488 nm) and a FITC emission filter, with microscope and camera settings adjusted for each sample to optimize the signal detected from each peptide. The images were examined to identify the relative levels of peptide binding in healthy versus carious tissue. […] Given their ability to remineralize at sites of enamel degradation, they can also be used to initiate remineralization at sites of enamel degradation such as caries or injury sites without causing inappropriate nucleation on healthy tissue surfaces.
# [6] = Binding of calcium phosphate to immobilized DSS peptides on streptavidin-coated polystyrene beads; details: biotin-conjugated peptide on beads, saturated CaHPO4 solutions
# Experimental: Streptavidin-coated polystyrene beads with an average diameter of 4 μm (Spherotech, Lake Forest, Ill.) were incubated with either biotin-conjugated 8DSS (SEQ ID NO:33) peptide or unconjugated biotin (control beads). Beads were washed with PBS to remove unbound peptide (or unbound biotin in control beads) and incubated in a solution of PBS+1 mM CaCl2+1 mM NaHPO4 for 12 days prior to imaging. […] DSS-containing peptides containing C-terminal biotin labels were then synthesized and immobilized on streptavidin-coated beads. The beads were washed and incubated in solutions containing varying concentrations of CaHPO4 as before. Consistent with previous observations for the dentin phosphoproteins/phosphosphoryns as well as other phosphoproteins (Saito et al. (1997) Bone 21: 305-311; Saito et al. (2000) J Bone Miner Res., 15: 1615-1619), these immobilized peptides caused coaggregation of the beads with particles of amorphous CaHPO4 and eventually led to the deposition of crystalline material around the bead. […] By comparison, in the biotin-blocked control sample, nearly all beads were unaggregated and unassociated with precipitate (FIG. 9, panel B).
substance,measurement,setting,value
DSS DSS DSSDSS DSS DSS DSS DSS (DSSDSSDSSDSSDSSDSSDSSDSS; synthetic calcium-binding peptide 8DSS),mineral accumulation on demineralized dentin,[1],accumulated a continuous layer of calcium phosphate precipitate; also recorded: markedly enhanced the effectiveness of a commercially available remineralization product
same,crystal growth (nucleation) on enamel,[2],significant crystal growth
same,binding to dentin,[3],binds tightly to the dentin
same,binding to enamel,[3],binding to the enamel almost completely absent
same,tissue pattern of binding in the tooth section,[4],bound primarily to the mantle dentin
same,level of binding (staining) to tooth surfaces,[4]; identical settings,the greatest levels of staining
same,specificity of binding to carious lesions versus healthy enamel,[5],highly specific binding to carious lesions
same,strength of staining of carious lesions,[5],exceptionally strong staining of carious lesions
same,aggregation/accretion of calcium phosphate by immobilized peptide,[6],effectively aggregate amorphous calcium phosphate
